Data as given in ChEMBL document CHEMBL1135903 (J Med Chem, 2002).
In brackets after ≈: the same amount, converted by molar mass.

Columns and labels:
[1] = octanol/water
Carbonic anhydrase 4 = target: T1, Carbonic anhydrase 4 (Bos taurus, UniProt Q95323)
T1 sequence (Q95323 whole entry): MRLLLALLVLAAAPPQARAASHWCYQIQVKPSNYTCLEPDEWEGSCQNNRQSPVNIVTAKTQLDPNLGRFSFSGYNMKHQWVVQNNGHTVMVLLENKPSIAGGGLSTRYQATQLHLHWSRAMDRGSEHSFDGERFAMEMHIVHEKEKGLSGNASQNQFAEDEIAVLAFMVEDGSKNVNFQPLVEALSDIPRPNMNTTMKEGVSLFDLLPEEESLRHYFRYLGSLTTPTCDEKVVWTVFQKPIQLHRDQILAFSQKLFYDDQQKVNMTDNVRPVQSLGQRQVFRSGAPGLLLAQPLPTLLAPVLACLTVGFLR
Description: Inhibitory activity against bovine carbonic anhydrase IV

[2] = not given; remark: listed apart in the source
[3] = Solubility in Chloroform buffer at pH 7.4; type: physicochemical
Carbonic anhydrase 1 = Carbonic anhydrase 1 (Homo sapiens, UniProt P00915)
Description: Inhibitory activity against Human carbonic anhydrase I

[4] = not given; remark: listed apart in the source
physchem = details: buffer, pH 5.5
Description: Solubility in buffer at pH 5.5

[5] = not given; remark: listed apart in the source
[6] = Solubility in chloroform buffer at pH 7.4; type: physicochemical
[7] = Partition coefficient in Chloroform-buffer at pH 7.4; type: physicochemical
[8] = Solubility in buffer at pH 7.4; type: physicochemical
Oryctolagus cuniculus [9] = species on record: Oryctolagus cuniculus
Oryctolagus cuniculus [10] = species on record: Oryctolagus cuniculus; remark: listed apart in the source
Oryctolagus cuniculus [11] = species on record: Oryctolagus cuniculus; remark: listed apart in the source
Oryctolagus cuniculus [12] = species on record: Oryctolagus cuniculus; remark: listed apart in the source

Carbonic anhydrase 1, sequence (P00915 whole entry): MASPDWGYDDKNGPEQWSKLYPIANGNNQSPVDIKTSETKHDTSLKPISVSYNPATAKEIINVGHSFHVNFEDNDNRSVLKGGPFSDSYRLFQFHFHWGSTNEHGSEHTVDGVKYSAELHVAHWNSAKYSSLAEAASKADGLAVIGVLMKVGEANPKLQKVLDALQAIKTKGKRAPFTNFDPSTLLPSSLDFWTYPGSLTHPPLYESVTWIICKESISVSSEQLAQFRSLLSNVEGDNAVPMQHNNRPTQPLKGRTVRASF

| Compound | Kin x10e3 [hr-1] | logD [1] | Ki (Carbonic anhydrase 4) [nM] | Kin x10e3 [2] [hr-1] | solubility [3] [mM] | Ki (Carbonic anhydrase 1) [nM] | Kin x10e3 [4] [hr-1] | solubility (physchem) [mM] | Kin x10e3 [5] [hr-1] | further results |
| --- | --- | --- | --- | --- | --- | --- | --- | --- | --- | --- |
| NS(=O)(=O)c1cc(S(N)(=O)=O)c(NC(=O)CN(CCN(CC(=O)O)CC(=O)Nc2c(S(N)(=O)=O)cc(S(N)(=O)=O)c(Cl)c2Cl)CC(=O)O)c(Cl)c1Cl | 7 | 1.764 | 51 | 3.6 | 32 (≈ 28.7 mg/mL) | 65 |  |  |  |  |
| NS(=O)(=O)c1ccc(NC(=O)CN(CCOCCOCCN(CC(=O)O)CC(=O)O)CC(=O)O)c(Br)c1 |  | 1.747 | 32 |  |  | 78 | 6.5 | 50 (≈ 30.7 mg/mL) | 3.3 |  |
| NS(=O)(=O)C1N=NC(NC(=O)CN(CCN(CCN(CC(=O)O)CC(=O)NC2N=NC(S(N)(=O)=O)S2)CC(=O)O)CC(=O)O)S1 (configuration not stated) |  | 1.961 | 7 |  |  |  | 6.2 | 54 (≈ 39 mg/mL) | 3.9 |  |
| NS(=O)(=O)c1ccc(NC(=O)CN(CCOCCOCCN(CC(=O)O)CC(=O)Nc2ccc(S(N)(=O)=O)cc2F)CC(=O)O)c(F)c1 |  | 1.534 | 16 |  |  | 155 | 8.3 | 47 (≈ 34.1 mg/mL) | 4.5 |  |
| NS(=O)(=O)c1nnc(NC(=O)CCNC(=O)CNCC(=O)O)s1 | 4.6 |  | 48 | 2.5 |  | 280 |  |  |  | solubility [6]: 62 mM (≈ 22.7 mg/mL); logD [7]: 1.23 |
| NS(=O)(=O)c1nnc(NC(=O)CN(CCOCCOCCN(CC(=O)O)CC(=O)O)CC(=O)O)s1 |  | 1.446 | 21 |  |  | 54 | 8.4 | 52 (≈ 28.2 mg/mL) | 4.6 |  |
| NS(=O)(=O)c1ccc(NC(=O)CN(CCN(CCN(CC(=O)O)CC(=O)O)CC(=O)O)CC(=O)O)cc1 | 6.9 | 0.983 | 180 | 3.8 | 48 (≈ 26.3 mg/mL) |  |  |  |  |  |
| Cn1nc(S(N)(=O)=O)s/c1=N/C(=O)CN(CCN(CC(=O)O)CC(=O)O)CC(=O)O | 9.5 | 1.75 | 26 | 4.8 | 65 (≈ 30.5 mg/mL) | 215 |  |  |  |  |
| NS(=O)(=O)c1nc2ccc(OC(=O)CNCCNCC(=O)O)cc2s1 |  | 1.166 | 11 |  |  | 45 | 8.4 | 44 (≈ 17.1 mg/mL) | 4.7 |  |
| NS(=O)(=O)c1nc2ccc(OCCOC(=O)CN(CC(=O)O)CC(=O)O)cc2s1 |  |  | 10 |  |  | 44 |  |  |  | solubility [8]: 37 mM (≈ 16.6 mg/mL); logD [7]: 1.925 |
| NS(=O)(=O)c1nnc(NC(=O)CCNC(=O)CN(CCN(CC(=O)O)c2ccccc2O)c2ccccc2O)s1 | 10.7 | 2.354 | 35 | 5.1 | 44 (≈ 26.1 mg/mL) | 210 |  |  |  |  |
| (Carboxymethyl-{2-[2-(2-{carboxymethyl-[(5-sulfamoyl-[1,3,4]thiadiazol-2-ylcarbamoyl)-methyl]-amino}-ethoxy)-ethoxy]-ethyl}-amino)-acetic acid; compound with Cu complex |  |  |  |  |  |  |  |  |  | Delta IOP (Oryctolagus cuniculus [9]): 0 mmHg; Delta IOP (Oryctolagus cuniculus [10]): 4.7 mmHg; Delta IOP (Oryctolagus cuniculus [11]): 9.6 mmHg; Delta IOP (Oryctolagus cuniculus [12]): 13.5 mmHg |
| NS(=O)(=O)c1nnc(NC(=O)CN(CCN(CCN(CC(=O)O)CC(=O)O)CC(=O)O)CC(=O)O)s1 | 8.1 | 1.375 | 28 | 4.3 | 59 (≈ 32.8 mg/mL) |  |  |  |  |  |
| NS(=O)(=O)c1nnc(NC(=O)CCNC(=O)CN(CCN(CC(=O)O)CC(=O)NCCC(=O)Nc2nnc(S(N)(=O)=O)s2)CC(=O)O)s1 | 5.9 | 1.15 | 10 | 3 |  | 125 |  |  |  | solubility [8]: 46 mM (≈ 34.9 mg/mL) |
